Blank lines part the entries; values can stand above or below the compound they belong to.
Legend:
[1] = target: ALK tyrosine kinase receptor (Homo sapiens) (UniProt Q9UM73); experiment: Inhibition of ALK (unknown origin) at 50 nM by Z'LYTE screening method relative to control
[2] = target: Vascular endothelial growth factor receptor 1 (Homo sapiens) (UniProt P17948); experiment: Inhibition of FLT1/VEGFR1(unknown origin) at 50 nM by Z'LYTE screening method relative to control
[3] = target: T1, Aurora kinase A (Homo sapiens) (UniProt O14965); experiment: Inhibition of AURA (unknown origin) at 50 nM by Z'LYTE screening method relative to control
T1 sequence (whole entry): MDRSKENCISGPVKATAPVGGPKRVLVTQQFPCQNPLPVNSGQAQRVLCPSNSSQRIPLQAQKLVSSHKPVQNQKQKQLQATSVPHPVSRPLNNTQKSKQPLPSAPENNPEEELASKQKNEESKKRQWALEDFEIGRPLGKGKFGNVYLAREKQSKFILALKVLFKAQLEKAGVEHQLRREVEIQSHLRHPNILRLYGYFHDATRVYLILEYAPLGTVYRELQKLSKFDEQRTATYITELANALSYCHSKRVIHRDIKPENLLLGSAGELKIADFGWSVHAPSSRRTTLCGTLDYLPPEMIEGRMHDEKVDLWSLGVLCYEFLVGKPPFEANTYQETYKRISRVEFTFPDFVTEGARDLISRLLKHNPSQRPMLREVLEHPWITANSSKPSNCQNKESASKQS

[4] = target: Protein kinase C theta type (Homo sapiens, UniProt Q04759); experiment: Inhibition of PKCtheta (unknown origin) at 50 nM by Z'LYTE screening method relative to control
Chain of Protein kinase C theta type (Q04759 whole entry, looked up): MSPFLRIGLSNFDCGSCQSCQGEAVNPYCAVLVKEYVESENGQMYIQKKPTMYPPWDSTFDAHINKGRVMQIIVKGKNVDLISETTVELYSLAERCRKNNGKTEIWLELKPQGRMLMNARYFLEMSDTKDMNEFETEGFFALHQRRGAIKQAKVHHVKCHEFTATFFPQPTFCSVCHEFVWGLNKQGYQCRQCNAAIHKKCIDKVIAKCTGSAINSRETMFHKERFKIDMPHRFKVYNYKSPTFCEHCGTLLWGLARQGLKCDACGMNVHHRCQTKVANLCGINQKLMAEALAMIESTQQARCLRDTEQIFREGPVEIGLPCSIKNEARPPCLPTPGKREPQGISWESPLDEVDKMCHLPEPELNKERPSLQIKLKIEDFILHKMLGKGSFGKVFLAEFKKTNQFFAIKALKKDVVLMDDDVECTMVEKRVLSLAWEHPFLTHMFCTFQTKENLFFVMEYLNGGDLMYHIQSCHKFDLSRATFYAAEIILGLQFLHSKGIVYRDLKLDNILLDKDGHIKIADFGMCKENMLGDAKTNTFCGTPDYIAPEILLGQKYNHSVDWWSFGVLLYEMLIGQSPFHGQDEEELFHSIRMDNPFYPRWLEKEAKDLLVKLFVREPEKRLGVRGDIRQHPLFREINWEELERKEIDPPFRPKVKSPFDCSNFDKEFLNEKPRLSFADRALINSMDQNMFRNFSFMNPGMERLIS

[5] = target: Protein kinase C beta type (Homo sapiens) (UniProt P05771); experiment: Inhibition of PKCbeta2 (unknown origin) at 50 nM by Z'LYTE screening method relative to control
Chain of Protein kinase C beta type (Homo sapiens) (P05771 2-671 limits assumed): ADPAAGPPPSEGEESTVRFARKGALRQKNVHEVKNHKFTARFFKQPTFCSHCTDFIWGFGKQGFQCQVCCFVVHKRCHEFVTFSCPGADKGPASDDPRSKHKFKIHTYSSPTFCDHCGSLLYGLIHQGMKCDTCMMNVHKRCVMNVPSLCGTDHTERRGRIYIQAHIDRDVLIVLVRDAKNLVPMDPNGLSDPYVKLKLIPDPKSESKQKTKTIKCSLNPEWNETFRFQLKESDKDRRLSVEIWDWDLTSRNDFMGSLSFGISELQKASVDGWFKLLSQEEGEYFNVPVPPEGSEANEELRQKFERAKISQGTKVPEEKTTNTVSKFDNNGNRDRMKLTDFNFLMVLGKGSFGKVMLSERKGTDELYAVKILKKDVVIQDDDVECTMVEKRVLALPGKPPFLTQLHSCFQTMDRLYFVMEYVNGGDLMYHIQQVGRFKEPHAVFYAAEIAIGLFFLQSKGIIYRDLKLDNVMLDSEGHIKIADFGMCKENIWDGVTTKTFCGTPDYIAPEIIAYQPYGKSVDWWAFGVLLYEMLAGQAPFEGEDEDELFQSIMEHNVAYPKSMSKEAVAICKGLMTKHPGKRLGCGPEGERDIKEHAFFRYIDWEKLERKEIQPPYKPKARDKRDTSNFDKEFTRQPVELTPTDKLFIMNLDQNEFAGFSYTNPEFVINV

[6] = target: DNA-dependent protein kinase catalytic subunit (Homo sapiens) (UniProt P78527); experiment: Inhibition of DNA-PK (unknown origin) at 50 nM by Z'LYTE screening method relative to control
[7] = target: T2, Protein kinase C epsilon type (Homo sapiens) (UniProt Q02156); experiment: Inhibition of PKCepsilon (unknown origin) at 50 nM by Z'LYTE screening method relative to control
T2 sequence (whole entry): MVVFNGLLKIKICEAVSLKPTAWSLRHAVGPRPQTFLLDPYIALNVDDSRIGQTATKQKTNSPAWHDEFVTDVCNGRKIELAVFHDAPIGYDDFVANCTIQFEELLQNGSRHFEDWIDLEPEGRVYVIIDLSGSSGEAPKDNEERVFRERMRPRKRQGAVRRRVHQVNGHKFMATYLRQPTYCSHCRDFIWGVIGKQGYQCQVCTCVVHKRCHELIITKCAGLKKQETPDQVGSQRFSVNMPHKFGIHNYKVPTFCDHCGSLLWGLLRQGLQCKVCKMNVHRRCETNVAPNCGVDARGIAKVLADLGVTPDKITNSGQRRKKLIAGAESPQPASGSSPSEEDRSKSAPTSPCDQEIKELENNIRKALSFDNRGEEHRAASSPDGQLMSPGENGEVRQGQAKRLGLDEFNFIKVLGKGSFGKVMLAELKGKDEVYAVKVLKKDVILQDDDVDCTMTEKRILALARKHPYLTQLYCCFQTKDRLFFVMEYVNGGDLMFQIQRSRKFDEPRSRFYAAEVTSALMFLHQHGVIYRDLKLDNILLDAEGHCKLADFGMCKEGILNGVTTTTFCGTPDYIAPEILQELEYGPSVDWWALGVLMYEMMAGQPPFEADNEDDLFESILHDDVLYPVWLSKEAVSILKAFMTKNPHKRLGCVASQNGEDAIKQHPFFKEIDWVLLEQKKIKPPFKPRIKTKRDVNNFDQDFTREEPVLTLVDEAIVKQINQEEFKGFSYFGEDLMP

[8] = target: Protein kinase C beta type (Homo sapiens) (UniProt P05771); experiment: Inhibition of PKCbeta1 (unknown origin) at 50 nM by Z'LYTE screening method relative to control
[9] = target: Proto-oncogene tyrosine-protein kinase receptor Ret (Homo sapiens) (UniProt P07949); experiment: Inhibition of RET (unknown origin) at 50 nM by Z'LYTE screening method relative to control
[10] = target: Ribosomal protein S6 kinase alpha-1 (Homo sapiens) (UniProt Q15418); experiment: Inhibition of RPS6KA1 (unknown origin) at 50 nM by Z'LYTE screening method relative to control
Chain of Ribosomal protein S6 kinase alpha-1 (Homo sapiens) (Q15418 whole entry): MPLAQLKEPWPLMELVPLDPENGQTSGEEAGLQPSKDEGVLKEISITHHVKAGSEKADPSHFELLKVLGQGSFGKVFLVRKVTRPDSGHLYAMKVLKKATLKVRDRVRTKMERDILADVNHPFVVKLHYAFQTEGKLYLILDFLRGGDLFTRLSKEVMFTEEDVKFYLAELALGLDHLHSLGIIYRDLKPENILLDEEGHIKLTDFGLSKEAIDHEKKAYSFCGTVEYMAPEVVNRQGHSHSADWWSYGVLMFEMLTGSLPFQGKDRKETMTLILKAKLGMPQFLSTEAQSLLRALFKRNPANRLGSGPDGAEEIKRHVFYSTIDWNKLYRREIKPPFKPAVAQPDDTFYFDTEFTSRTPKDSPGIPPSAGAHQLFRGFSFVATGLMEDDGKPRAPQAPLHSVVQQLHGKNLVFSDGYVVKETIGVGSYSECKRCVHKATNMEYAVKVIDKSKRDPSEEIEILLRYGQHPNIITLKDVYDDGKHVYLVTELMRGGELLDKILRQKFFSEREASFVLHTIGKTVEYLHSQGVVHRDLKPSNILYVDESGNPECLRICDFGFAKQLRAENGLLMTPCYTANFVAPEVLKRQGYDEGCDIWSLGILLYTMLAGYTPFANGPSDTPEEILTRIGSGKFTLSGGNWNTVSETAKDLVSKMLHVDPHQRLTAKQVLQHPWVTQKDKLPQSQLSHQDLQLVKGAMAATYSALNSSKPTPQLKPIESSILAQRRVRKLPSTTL

MDA-MB-231 = experiment: Cytotoxicity against human MDA-MB-231/M cells assessed as reduction in cell viability incubated for 96 hrs by MTT assay; format: functional, cell-based; settings: MDA-MB-231, 96 h
[11] = target: Fibroblast growth factor receptor 1 (Homo sapiens) (UniProt P11362); experiment: Inhibition of FGFR1 (unknown origin) at 50 nM by Z'LYTE screening method relative to control
[12] = target: Serine/threonine-protein kinase PAK 1 (Homo sapiens) (UniProt Q13153); experiment: Inhibition of PAK1 (unknown origin) at 50 nM by Z'LYTE screening method relative to control
Chain of Serine/threonine-protein kinase PAK 1 (Homo sapiens) (Q13153 whole entry): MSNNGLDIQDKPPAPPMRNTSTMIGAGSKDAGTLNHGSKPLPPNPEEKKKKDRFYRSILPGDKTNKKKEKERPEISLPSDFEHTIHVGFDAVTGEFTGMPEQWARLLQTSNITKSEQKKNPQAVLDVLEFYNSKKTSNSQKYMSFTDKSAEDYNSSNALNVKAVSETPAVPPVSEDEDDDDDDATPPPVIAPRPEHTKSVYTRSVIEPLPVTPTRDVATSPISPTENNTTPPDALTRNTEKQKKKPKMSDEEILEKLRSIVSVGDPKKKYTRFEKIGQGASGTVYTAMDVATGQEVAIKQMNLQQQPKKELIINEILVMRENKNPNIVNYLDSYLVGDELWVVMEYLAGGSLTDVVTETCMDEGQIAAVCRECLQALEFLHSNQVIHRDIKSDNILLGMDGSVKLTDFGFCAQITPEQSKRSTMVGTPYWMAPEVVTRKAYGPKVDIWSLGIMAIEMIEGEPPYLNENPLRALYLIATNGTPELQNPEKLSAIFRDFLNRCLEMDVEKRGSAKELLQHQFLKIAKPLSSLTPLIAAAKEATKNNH

[13] = target: Aurora kinase B (Homo sapiens) (UniProt Q96GD4); experiment: Inhibition of AURB (unknown origin) at 50 nM by Z'LYTE screening method relative to control
Chain of Aurora kinase B (Homo sapiens) (Q96GD4 whole entry): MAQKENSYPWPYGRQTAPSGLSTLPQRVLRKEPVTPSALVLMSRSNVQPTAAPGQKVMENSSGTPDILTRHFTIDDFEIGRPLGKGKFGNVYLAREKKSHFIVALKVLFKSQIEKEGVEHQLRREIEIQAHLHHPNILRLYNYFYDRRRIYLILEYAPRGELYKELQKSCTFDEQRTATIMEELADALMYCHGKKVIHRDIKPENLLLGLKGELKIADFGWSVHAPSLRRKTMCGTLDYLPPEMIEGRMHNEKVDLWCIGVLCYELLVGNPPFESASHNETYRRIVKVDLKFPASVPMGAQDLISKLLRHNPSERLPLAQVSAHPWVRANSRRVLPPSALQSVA

[14] = target: Tyrosine-protein kinase SYK (Homo sapiens) (UniProt P43405); experiment: Inhibition of SYK (unknown origin) at 50 nM by Z'LYTE screening method relative to control
[15] = target: Proto-oncogene tyrosine-protein kinase Src (Homo sapiens) (UniProt P12931); experiment: Inhibition of SRC (unknown origin) at 50 nM by Z'LYTE screening method relative to control
[16] = target: Protein kinase C delta type (Homo sapiens) (UniProt Q05655); experiment: Inhibition of PKCdelta (unknown origin) at 50 nM by Z'LYTE screening method relative to control
[17] = target: PI3-kinase p110-alpha/p85-alpha (Homo sapiens) (UniProt P27986+P42336); experiment: Inhibition of p110alpha/p85alpha (unknown origin) at 50 nM by Z'LYTE screening method relative to control; format: protein-complex assay
[18] = target: Ribosomal protein S6 kinase beta-1 (Homo sapiens) (UniProt P23443); experiment: Inhibition of p70S6K (unknown origin) at 50 nM by Z'LYTE screening method relative to control
Chain of Ribosomal protein S6 kinase beta-1 (Homo sapiens) (P23443 whole entry, looked up): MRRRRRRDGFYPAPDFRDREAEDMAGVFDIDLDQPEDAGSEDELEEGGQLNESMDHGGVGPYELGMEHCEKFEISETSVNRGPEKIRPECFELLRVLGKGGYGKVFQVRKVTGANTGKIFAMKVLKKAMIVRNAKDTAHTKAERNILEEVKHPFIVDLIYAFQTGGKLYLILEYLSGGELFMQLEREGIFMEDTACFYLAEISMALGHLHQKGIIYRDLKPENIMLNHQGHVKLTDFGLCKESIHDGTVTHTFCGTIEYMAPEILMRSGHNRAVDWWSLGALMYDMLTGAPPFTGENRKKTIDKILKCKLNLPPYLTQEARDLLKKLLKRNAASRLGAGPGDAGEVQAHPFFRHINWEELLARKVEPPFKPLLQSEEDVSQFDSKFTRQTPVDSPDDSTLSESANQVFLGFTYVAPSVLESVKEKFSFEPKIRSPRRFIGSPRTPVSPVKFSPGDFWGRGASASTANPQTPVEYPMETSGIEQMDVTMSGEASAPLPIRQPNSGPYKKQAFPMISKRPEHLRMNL

Chain of Vascular endothelial growth factor receptor 1 (Homo sapiens) (P17948 whole entry): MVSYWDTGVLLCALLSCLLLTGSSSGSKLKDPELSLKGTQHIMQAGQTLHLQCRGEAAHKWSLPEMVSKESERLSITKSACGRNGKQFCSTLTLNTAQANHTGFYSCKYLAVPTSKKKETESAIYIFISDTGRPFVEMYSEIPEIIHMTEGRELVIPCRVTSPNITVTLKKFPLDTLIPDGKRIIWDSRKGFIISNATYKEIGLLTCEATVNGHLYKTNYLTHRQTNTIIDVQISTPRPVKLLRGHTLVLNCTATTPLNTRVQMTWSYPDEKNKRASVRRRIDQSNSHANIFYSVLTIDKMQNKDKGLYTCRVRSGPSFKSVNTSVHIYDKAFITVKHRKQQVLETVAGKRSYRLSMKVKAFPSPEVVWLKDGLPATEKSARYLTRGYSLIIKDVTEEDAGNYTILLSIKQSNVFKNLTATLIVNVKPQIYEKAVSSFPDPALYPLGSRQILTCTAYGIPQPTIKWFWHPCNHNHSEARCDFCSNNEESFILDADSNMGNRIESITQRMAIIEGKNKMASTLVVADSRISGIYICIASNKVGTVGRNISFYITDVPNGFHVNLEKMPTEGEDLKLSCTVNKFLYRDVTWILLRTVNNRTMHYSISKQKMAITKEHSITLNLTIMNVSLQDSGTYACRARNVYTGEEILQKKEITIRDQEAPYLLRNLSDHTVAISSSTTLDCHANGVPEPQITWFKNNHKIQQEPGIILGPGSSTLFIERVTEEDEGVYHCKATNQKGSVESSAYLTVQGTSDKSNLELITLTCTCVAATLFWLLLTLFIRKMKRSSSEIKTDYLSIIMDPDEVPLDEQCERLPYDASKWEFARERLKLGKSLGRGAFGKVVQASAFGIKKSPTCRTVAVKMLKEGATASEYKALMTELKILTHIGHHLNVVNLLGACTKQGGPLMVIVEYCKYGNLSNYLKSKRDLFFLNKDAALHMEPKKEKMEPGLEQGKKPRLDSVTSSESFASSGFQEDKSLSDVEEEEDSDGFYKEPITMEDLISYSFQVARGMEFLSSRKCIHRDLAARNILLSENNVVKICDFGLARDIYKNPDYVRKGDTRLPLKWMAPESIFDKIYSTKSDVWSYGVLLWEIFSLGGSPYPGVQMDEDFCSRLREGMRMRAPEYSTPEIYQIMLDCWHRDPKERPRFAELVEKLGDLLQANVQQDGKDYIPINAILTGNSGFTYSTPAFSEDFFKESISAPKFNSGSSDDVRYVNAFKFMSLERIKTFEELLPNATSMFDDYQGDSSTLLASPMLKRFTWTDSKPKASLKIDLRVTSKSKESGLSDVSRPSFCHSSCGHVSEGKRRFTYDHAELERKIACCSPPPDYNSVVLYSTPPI

Structure (SMILES): O=c1c2ccccc2[se]n1-c1nc(NC2CCCCC2)c2nc[nH]c2n1
inhibition [1]: 1% | inhibition [2]: 2% | inhibition [3]: 84% | inhibition [4]: 62% | inhibition [5]: 62% | inhibition [6]: 0% | inhibition [7]: 6% | inhibition [8]: 59% | inhibition [9]: 13% | inhibition [10]: 2% | IC50 (MDA-MB-231): 10.2 µM | inhibition [11]: 0% | inhibition [12]: 0% | inhibition [13]: 7% | inhibition [14]: 5% | inhibition [15]: 3% | inhibition [16]: 0% | inhibition [17]: 0% | inhibition [18]: 1%

Structure (SMILES): O=C1c2ccccc2CN1c1nc(N[C@H]2CC[Se]C2)c2nc[nH]c2n1
inhibition [1]: 0% | inhibition [2]: 1% | inhibition [3]: 9% | inhibition [4]: 14% | inhibition [5]: 9% | inhibition [6]: 0% | inhibition [7]: 2% | inhibition [8]: 7% | inhibition [9]: 2% | inhibition [10]: 0% | IC50 (MDA-MB-231): 26.1 µM | inhibition [11]: 0% | inhibition [12]: 0% | inhibition [13]: 9% | inhibition [14]: 1% | inhibition [15]: 0% | inhibition [16]: 0% | inhibition [17]: 0% | inhibition [18]: 2%

Structure (SMILES): O=c1c2ccccc2[se]n1-c1nc(Nc2ccccc2)c2nc[nH]c2n1
inhibition [1]: 1% | inhibition [2]: 1% | inhibition [3]: 6% | inhibition [4]: 12% | inhibition [5]: 28% | inhibition [6]: 0% | inhibition [7]: 0% | inhibition [8]: 6% | inhibition [9]: 4% | inhibition [10]: 0% | IC50 (MDA-MB-231): 32.2 µM | inhibition [11]: 0% | inhibition [12]: 0% | inhibition [13]: 1% | inhibition [14]: 0% | inhibition [15]: 1% | inhibition [16]: 0% | inhibition [17]: 0% | inhibition [18]: 0%

Structure (SMILES): O=c1c2ccccc2[se]n1-c1nc(N[C@H]2CCOC2)c2nc[nH]c2n1
inhibition [1]: 1% | inhibition [2]: 0% | inhibition [3]: 71% | inhibition [4]: 85% | inhibition [5]: 7% | inhibition [6]: 0% | inhibition [7]: 0% | inhibition [8]: 84% | inhibition [9]: 7% | inhibition [10]: 5% | IC50 (MDA-MB-231): 2.3 µM | inhibition [11]: 0% | inhibition [12]: 0% | inhibition [13]: 0% | inhibition [14]: 2% | inhibition [15]: 3% | inhibition [16]: 0% | inhibition [17]: 0% | inhibition [18]: 6%

Structure (SMILES): CCCNc1nc(-n2[se]c3ccccc3c2=O)nc2[nH]cnc12
inhibition [1]: 1% | inhibition [2]: 0% | inhibition [3]: 4% | inhibition [4]: 25% | inhibition [5]: 95% | inhibition [6]: 0% | inhibition [7]: 6% | inhibition [8]: 2% | inhibition [9]: 0% | inhibition [10]: 0% | IC50 (MDA-MB-231): 23.2 µM | inhibition [11]: 0% | inhibition [12]: 1% | inhibition [13]: 2% | inhibition [14]: 2% | inhibition [15]: 2% | inhibition [16]: 0% | inhibition [17]: 0% | inhibition [18]: 0%

Structure (SMILES): O=c1c2ccccc2[se]n1-c1nc(N[C@H]2CC[Se]C2)c2nc[nH]c2n1
inhibition [1]: 0% | inhibition [2]: 0% | inhibition [3]: 87% | inhibition [4]: 98% | inhibition [5]: 8% | inhibition [6]: 0% | inhibition [7]: 5% | inhibition [8]: 95% | inhibition [9]: 7% | inhibition [10]: 5% | IC50 (MDA-MB-231): 1.2 µM | inhibition [11]: 0% | inhibition [12]: 0% | inhibition [13]: 0% | inhibition [14]: 0% | inhibition [15]: 0% | inhibition [16]: 0% | inhibition [17]: 0% | inhibition [18]: 3%

Further lines, with some results ahead:

inhibition [1]: 0% | inhibition [2]: 2% | inhibition [3]: 3% | inhibition [4]: 12% | inhibition [5]: 25% | inhibition [6]: 0% | inhibition [7]: 4% | inhibition [8]: 5% | inhibition [9]: 2% | inhibition [10]: 0% | inhibition [11]: 0% | inhibition [12]: 2% | inhibition [13]: 5% | inhibition [14]: 2% | inhibition [15]: 0% | inhibition [16]: 0% | inhibition [17]: 0% | inhibition [18]: 1%
Structure (SMILES): CCN(CC)CCCC(C)Nc1nc(N2Cc3ccccc3C2=O)nc2[nH]cnc12 (stereo not given)
IC50 (MDA-MB-231): 22.1 µM

inhibition [1]: 1% | inhibition [2]: 0% | inhibition [3]: 4% | inhibition [4]: 0% | inhibition [5]: 5% | inhibition [6]: 0% | inhibition [7]: 4% | inhibition [8]: 5% | inhibition [9]: 10% | inhibition [10]: 2% | inhibition [11]: 0% | inhibition [12]: 0% | inhibition [13]: 4% | inhibition [14]: 3% | inhibition [15]: 5% | inhibition [16]: 0% | inhibition [17]: 0% | inhibition [18]: 1%
Structure (SMILES): O=C1c2ccccc2CN1c1nc(NC2CCCCC2)c2nc[nH]c2n1
IC50 (MDA-MB-231): 36.6 µM

inhibition [1]: 0% | inhibition [2]: 1% | inhibition [3]: 4% | inhibition [4]: 15% | inhibition [5]: 62% | inhibition [6]: 0% | inhibition [7]: 2% | inhibition [8]: 0% | inhibition [9]: 6% | inhibition [10]: 0% | inhibition [11]: 0% | inhibition [12]: 1% | inhibition [13]: 4% | inhibition [14]: 3% | inhibition [15]: 2% | inhibition [16]: 0% | inhibition [17]: 0% | inhibition [18]: 2%
Structure (SMILES): O=c1c2ccccc2[se]n1-c1nc(N[C@@H]2C[C@H]3CC[C@@H]2C3)c2nc[nH]c2n1
IC50 (MDA-MB-231): 32.4 µM

inhibition [1]: 2% | inhibition [2]: 1% | inhibition [3]: 1% | inhibition [4]: 7% | inhibition [5]: 9% | inhibition [6]: 0% | inhibition [7]: 0% | inhibition [8]: 0% | inhibition [9]: 2% | inhibition [10]: 1% | inhibition [11]: 0% | inhibition [12]: 0% | inhibition [13]: 1% | inhibition [14]: 1% | inhibition [15]: 0% | inhibition [16]: 0% | inhibition [17]: 0% | inhibition [18]: 1%
Structure (SMILES): O=C1c2ccccc2CN1c1nc(NC2CCCC2)c2nc[nH]c2n1
IC50 (MDA-MB-231): 24.7 µM
